Key:
CCR6 = target: T1, CCR6 (Homo sapiens, UniProt P51684); experiment: CCR6+ T cell chemotaxis assay; type: cell-based
T1 construct: Human CD4+CCR6+CXCR3-T cells were isolated from leukopak from healthy donors; endogenous in cells
T1 sequence (P51684 1-374): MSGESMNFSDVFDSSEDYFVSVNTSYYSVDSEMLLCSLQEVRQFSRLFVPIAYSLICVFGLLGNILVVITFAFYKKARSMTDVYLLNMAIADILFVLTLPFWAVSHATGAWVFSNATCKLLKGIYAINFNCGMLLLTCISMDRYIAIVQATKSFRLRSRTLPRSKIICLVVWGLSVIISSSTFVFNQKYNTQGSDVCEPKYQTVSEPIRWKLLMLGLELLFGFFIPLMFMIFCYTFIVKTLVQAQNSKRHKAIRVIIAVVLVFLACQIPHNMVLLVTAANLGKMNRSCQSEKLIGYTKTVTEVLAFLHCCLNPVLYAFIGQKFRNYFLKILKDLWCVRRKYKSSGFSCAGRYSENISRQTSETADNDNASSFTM
Description: Human CD4+CCR6+CXCR3-T cells were isolated from leukopak from healthy donors using EasySep™ Human Th17 Cell Enrichment Kit. […] Day 4 post activation, Dynabeads were removed from the culture. The activated T cells were maintained at 1-2×10^6 cells/mL for 15 days by feeding fresh growth media when needed.
For IC50 determination, the top and bottom of the chemotaxis chamber contained the same concentration of compound. DMSO was kept constant at 0.1% (v/v) in all wells. The final concentration of CCL20 (Peprotech 300-29A) in the bottom chamber is 0.5 nM. The fully assembled chemotaxis plate was placed in a cell culture incubator at 37° C., 5% CO2 for 1 h. After incubation, the top filter was removed, followed by a quick freeze of the bottom chamber at −80° C. for 1 h. The migrated cells in the bottom chamber were stained with CyQUANT dye (Life Technologies, C7026) for cell number determination.
IC50 values for compounds of the present invention (Table 1a) were determined by the non-linear regression analysis of dose response curves.

CXCR2 = target: T2, CXCR2 (Homo sapiens, UniProt P25025); experiment: Human neutrophil chemotaxis assay; type: cell-based; settings: R = H; read-out: CXCR2 Neutrophil, GRO[…] Chemotaxis IC50
T2 construct: Human neutrophils were purified from freshly drawn human whole blood; endogenous in cells; host or cells: primary human neutrophils from freshly drawn whole blood
T2 sequence (P25025 1-360): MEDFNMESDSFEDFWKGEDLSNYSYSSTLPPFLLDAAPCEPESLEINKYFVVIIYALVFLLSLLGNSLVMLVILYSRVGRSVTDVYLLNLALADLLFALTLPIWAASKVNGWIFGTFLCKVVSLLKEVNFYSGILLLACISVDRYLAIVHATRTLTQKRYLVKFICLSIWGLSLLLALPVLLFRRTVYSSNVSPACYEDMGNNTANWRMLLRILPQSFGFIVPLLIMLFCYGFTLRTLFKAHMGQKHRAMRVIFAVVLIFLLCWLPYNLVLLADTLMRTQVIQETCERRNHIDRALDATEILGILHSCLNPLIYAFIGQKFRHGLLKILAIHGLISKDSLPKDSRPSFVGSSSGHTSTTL
Experimental: After 30 min, the labeled neutrophils were washed twice in chemotaxis buffer, resuspended as before and used immediately. For the assay, test compounds were tested in a dose-response format to determine IC50. Labeled neutrophils (50 μL) were pre-incubated with diluted test compound (50 μL) for 30 min in a 96-well plate (Greiner). Next, 100 μL of diluted compound was mixed with 100 μL of GROα (Peprotech #300-11, 2 nM) in the bottom portion of the chemotaxis chamber.
The top portion (insert) of the chemotaxis system containing the FluoroBlok porous membrane was then assembled together. 50 μL of the pre-incubated neutrophils were added to the FluoroBlok insert (top portion) and chemotaxis measured by the neutrophils ability to migrate through the membrane towards the specific CXCR2 ligand, GROα.

Cc1nc([C@H](Nc2c(Nc3ccnc(C(=O)N(C)C)c3O)c(=O)c2=O)C2(C)CCCC2)co1 [drawing 159 (R = H)]
T Cell Chemotaxis Selectivity (CCR6; R = H): NS* (Not selective for T cell chemotaxis compared to neutrophil chemotaxis)

Cc1cn(C)nc1[C@H](Nc1c(Nc2ccnc(C(=O)N(C)C)c2O)c(=O)c1=O)C1(C)CC1 [Example 20, (R)-4-((2-(((1,4-Dimethyl-1H-pyrazol-3-yl)(1-methylcyclopropyl)methyl)amino)-3,4-dioxocyclobut-1-en-1-yl)amino)-3-hydroxy-N,N-dimethylpicolinamide]
T Cell Chemotaxis Selectivity (CCR6; T cell chemotaxis compared to neutrophil chemotaxis): NS** (Not selective for T cell chemotaxis compared to neutrophil chemotaxis)

CN(C)C(=O)c1nccc(Nc2c(N[C@@H](c3ccn(C)n3)C3(C)CCCC3)c(=O)c2=O)c1O [drawing 157 (R = H)]
IC50 (CCR6; R = H, read-out: CCR6 T cell, CCL20 Chemotaxis IC50): 19.2 nM
IC50 (CXCR2): 42.1 nM

— patent publication US20250296920A1, “FORMULATIONS COMPRISING N-SUBSTITUTED-DIOXOCYCLOBUTENYLAMINO-3-HYDROXY-PICOLINAMIDE COMPOUNDS AND USES THEREOF” (Pfizer Inc., priority 2024, published 2025)
